In brackets after ≈: the same amount, converted by molar mass.
How the values were obtained:
[1] = Drug metabolism in rat assessed as formation of reactive and migrated acyl glucuronides metabolites; format: ADME
[2] = Apparent permeability across apical to basolateral side of dog MDR1-MDCK2 cells; format: ADME, cell-based, Canis lupus familiaris, MDCK-II; settings: MDCK-MDR1
[3] = Oral bioavailability in rat at 1 mg/kg; format: ADME, organism-based; settings: in vivo
[4] = AUC in rat at 1 mg/kg, po; format: ADME, organism-based; parameters: dose 1 mg/kg; settings: in vivo
[5] = Solubility of the compound at pH 7.0; format: physicochemical; settings: buffer

Row | Drug metabolism [1] | Papp A→B [2] | bioavailability [3] | AUC [4] | solubility [5] | Compound
1 | Metabolite_Detected | – | – | – | – | O=C(O)C1CCCN(c2nc(-c3cc(-c4ccon4)n(Cc4ccccc4F)n3)ncc2F)C1 (racemic)
2 | Metabolite_Detected | – | – | – | – | O=C(O)C1CCN(c2nc(-c3cc(-c4ccon4)n(Cc4ccccc4F)n3)ncc2F)CC1

Second part, the molecule before the results:

Row | Compound | Drug metabolism [1] | Papp A→B [2] | bioavailability [3] | AUC [4] | solubility [5]
3 | C[C@@H]1CCCN(c2nc(-c3cc(-c4ccon4)n(Cc4ccccc4F)n3)ncc2F)[C@@H]1C(=O)O | Metabolite_Detected | 40 ×10⁻⁶ cm/s | > 100% | 3700 ng·h/mL | 21 µg/mL (≈ 43.7 µM)
4 | O=C(O)[C@H]1CCCCN1c1nc(-c2cc(-c3ccon3)n(Cc3ccccc3F)n2)ncc1F | Metabolite_Detected | – | – | – | –
5 | O=C(O)[C@@H]1CCCCN1c1nc(-c2cc(-c3ccon3)n(Cc3ccccc3F)n2)ncc1F | Metabolite_Detected | – | – | – | –
6 | Oc1nc(-c2cc(-c3ccon3)n(Cc3ccccc3F)n2)ncc1F | – | 24 ×10⁻⁶ cm/s | – | 25000 ng·h/mL | 3 µg/mL (≈ 8.44 µM)
7 | C[C@H]1CCCN(c2nc(-c3cc(-c4ccon4)n(Cc4ccccc4F)n3)ncc2F)[C@H]1C(=O)O | Metabolite_Detected | – | – | – | –

Source: ChEMBL document CHEMBL4813965, “Discovery of CYR715: A novel carboxylic acid-containing soluble guanylate cyclase stimulator” (Bioorg Med Chem Lett, 2021)
